Data published in patent US9346846B1, “Anti-cancer compounds and methods for treating cancer” (YALE UNIVERSITY, priority 2013, dated 2016).
Entries after “also recorded” stand apart in the source; their conditions may differ.

Legend:
Type in all cases: cell-based
[1] = test system: DDR-deficient cancer cells (BRCA2, pten, KU80 and DNApk); test: Chronogenic survival assay in DNA damage response deficient cancer cell lines
Description: (§1) A number of cancer cells lines were tested for effectness of (−)-lomaiviticin A or MK7-206. These cell lines are DNA damage response deficient cells (DDR-deficient cancer cells, indicated in FIGS. 16-24) or hypoxic cells (indicated in FIG. 25). The indicated cells were seeded at 500 cells per well in 6-23ll dishes and treated with various concentrations of (−)-lomaiviticin A at the indicated concentrations indicated in FIGS. 16-25 for a period of 24 hours, after which time the media containing the inhibitor was removed and replaced with fresh media. Colonies were fixed with 0.9% saline solution and stained with crystal violet 8-14 days later. Colonies consistent of greater than 50 cells were counted. Experiments utilizing MK7-206 for the cell lines which are presented in attached FIG. 28 (Table 2) and FIG. 30 (Table 4) were also conducted (at higher concentrations than for (−)lomaiviticin A).

[2] = test system: hypoxic MCF7 cells; test: Chronogenic survival assay in hypoxic versus normoxic MCF7 cells; conditions: hypoxia vs normoxia, 24 hours treatment
Description: as §1

[3] = test system: hypoxic A549 cells; test: Chronogenic survival assay in hypoxic versus normoxic A549 cells; conditions: hypoxia vs normoxia, 24 hours treatment
Description: as §1

[4] = test system: pATM; test: Western blotting of treated MCF7 cells, pATM; conditions: 24 hour treatment
Description: (§2) MCF-7 are seeded into 6-well dishes and treated with various doses of (−)-lomaiviticin A (LA), in the absence and presence of ionizing radiation (IR) at a dose rate of 2.4295 Gy/min (2 Gy, X-Ray) for 24 hour. After treatment, the cells were harvested for lysis in AZ lysis buffer ([…] Tris, 250 mM NaCl, 1% Igepal, 0.1% SDS, 5 mM EDTA, 10 mM Na4P2O7, 10 mM NaF) containing protease and phosphatase inhibitors. Western blotting was performed (FIG. 26).
(§3) Primary antibodies used were: mouse monoclonal anti-Ser1981-pATM (10H11.E12, Millipore, Temecula, Calif.), mouse monoclonal anti-vinculin (SPM227, Abcam, Cambridge, Mass.), rabbit polyclonal anti-Ser428-pATR (Cell Signaling, Danvers, Mass.), rabbit polyclonal anti-Thr68-pCHK2 (Cell Signaling), rabbit monoclonal anti-CHK2 (D9C6, Cell Signaling), rabbit monoclonal anti-Ser345-pCHK1 (Cell Signaling), and rabbit monoclonal anti-CHK1 (E250, Millipore).
(§4) Proteins were visualized with horseradish peroxidase-conjugated anti-mouse and anti-rabbit immunoglobulin G (Thermo Scientific, Rockford, Ill.) and the SuperSignal West Pico Chemiluminescent Substrate detection system (Thermo Scientific).

[5] = test system: pCHK2; test: Western blotting of treated MCF7 cells, pCHK2; conditions: 24 hour treatment
Description: as §2, §3, §4

[6] = test system: pATR; test: Western blotting of treated MCF7 cells, pATR; conditions: 24 hour treatment, listed as LA
Description: as §2, §3, §4

[7] = test system: pCHK1; test: Western blotting of treated MCF7 cells, pCHK1; conditions: 24 hour treatment, listed as LA
Description: as §2, §3, §4

(−)-lomaiviticin A
sensitivity of DDR-deficient cells to the compound ([1]; DDR-deficient (BRCA2, pten, KU80, DNApk) cells, 24 hours treatment, colonies stained 8-14 days later): more sensitive; also recorded: particularly susceptible
efficacy against cell lines in which DNA damage repair systems are deficient or down regulated ([1]; FIGS. 27-30): excellent efficacy
sensitivity of hypoxic cells compared with normoxic cells [2]: more sensitive
sensitivity of hypoxic cells compared with normoxic cells [3]: more sensitive
change in pATM (western blot) [4]: increase
change in pCHK2 (western blot) [5]: increase
change in pATR (western blot) [6]: no increase
change in pCHK1 (western blot) [7]: no increase
